According to PMC11910330, “Familial Alzheimer’s disease mutations in amyloid precursor protein impair calcineurin signaling to NMDA receptors” (The Journal of Biological Chemistry, 2024):
No end group written: not given here. *: point of attachment. Biotin = O=C1N[C@H]2[C@H](CS[C@H]2CCCCC(=O)*)N1

Tested on: human recombinant GST-CaN
Experiment: Peptide/CaN interaction assay (biotinylated peptides on streptavidin beads, GST-CaN pull-down, Western blot)
Type: binding
Settings: for CaN binding relative to the APP (WT) peptide (in words): Fig. 4B, FAD mutant peptides; for Western blot data following CaN interaction with biotinylated peptides, (signal for each/signal for CaN standard) * 40%: biotinylated APP peptides, GST-CaN pull-down; for CaN binding lower than the PVIVIT peptide / percent of CaN recovered (signal for each/signal for CaN standard * 40%) / CaN binding (in words): Fig. 1H; for percent of CaN recovered (signal for each/signal for CaN standard * 40%): 10 μg N-terminally biotinylated peptide on streptavidin beads, 200 ng GST-CaN, 30 min, 4 °C, Western blot, mean (n=7; APP-17mer n=3)
Description: Recombinant rabbit monoclonal to APP (clone Y188; Abcam cat# ab32136; 1:5000 dilution), rabbit polyclonal to APLP1 (Proteintech cat # 12305-2-AP; 1:1000 dilution), and rabbit polyclonal to APLP2 (Proteintech cat # 15041-1-A; 1:500 dilution) were used to detect native APP family members on western blots or recombinant GFP-tagged APP family members as validation (see Fig. S1). A horseradish peroxidase (HRP)-conjugated goat anti-rabbit antibody (Sigma-Aldrich Cat# 12-348; 1:10,000 dilution) was used as secondary antibody for these western blots, while an HRP-conjugated mouse monoclonal antibody to GFP (Invitrogen cat # MA 515256HRP; 1:1000 dilution) was used to independently verify the expression of GFP or GFP-tagged APP family members. A mouse monoclonal antibody CaN (BD Biosciences Cat# 556350; 1:1000 dilution) was used for the detection of native and recombinant CaN on western blots and for co-immunoprecipitation and peptide-based interaction assays experiments, while nonspecific mouse IgG (Thermo Fisher Scientific Cat# 02-6502) was used as a control. An HRP-conjugated goat anti-mouse antibody (Sigma-Aldrich Cat# 12-349; 1:10,000 dilution) […] was used as secondary antibody for these western blots, while HRP-conjugated protein G (Sigma-Aldrich cat # 18-161; 1:5000 dilution) was used for the secondary detection of CaN in co-immunoprecipitation experiments. A mouse monoclonal anti-Flag antibody (Sigma-Aldrich Cat# F1804) was used for co-immunoprecipitations of recombinant APP family members, while an HRP-conjugated version of this antibody (Sigma-Aldrich Cat# A8592; 1:1000) was used for the detection on western blots.
The N-terminally biotinylated AKAP79(330-357) and Ht31peptides were synthesized by Biomolecules Midwest and used as positive and negative controls for CaN interaction as previously described ([20]).
Either PBS with fresh 0.1% Tween-20 and 0.1% bovine serum albumin added or a modified IP buffer (150 mM NaCl, 10 mM Hepes; 5 mM EDTA; pH 7.4) with fresh 0.5% CHAPSO and 0.1% bovine serum albumin was used for these assays. […] Streptavidin-coated dynabeads (20 μl; Invitrogen cat # 65601) were washed and then incubated with 10 μg biotinylated peptides for 15 min at 4 °C in 200 μl of buffer. Beads were washed rapidly (400 μl; 3×) to remove unbound peptide and then incubated with 200 ng human recombinant GST-CaN in 200 μl buffer for 30 min at 4 °C. Following three washes (400 μl; 5 min each), complexes were eluted in 40 μl 2× Laemmli buffer, and samples were separated by SDS-PAGE and analyzed by Western blotting as above. Blots were probed with the mouse monoclonal anti-CaN antibody followed by anti-mouse HRP for secondary detection and visualized by enhanced chemiluminescence and digitally acquired as above. For each blot, the intensity of each band was normalized to that of from the GST-CaN standard (80 ng). As this standard represented 40% of the 200 ng input, the ratio was multiplied by 40 to achieve the percent of CaN recovered.

| Substance | CaN binding relative to the APP (WT) peptide (in words) | Western blot data following CaN interaction with biotinylated peptides, (signal for each/signal for CaN standard) * 40% (mean of n = 6) [%] | Western blot data following CaN interaction with biotinylated peptides, (signal for each/signal for CaN standard) * 40% (replicate 1) [%] | Western blot data following CaN interaction with biotinylated peptides, (signal for each/signal for CaN standard) * 40% (replicate 2) [%] | Western blot data following CaN interaction with biotinylated peptides, (signal for each/signal for CaN standard) * 40% (replicate 3) [%] | Western blot data following CaN interaction with biotinylated peptides, (signal for each/signal for CaN standard) * 40% (replicate 4) [%] | Western blot data following CaN interaction with biotinylated peptides, (signal for each/signal for CaN standard) * 40% (replicate 5) [%] | Western blot data following CaN interaction with biotinylated peptides, (signal for each/signal for CaN standard) * 40% (replicate 6) [%] | CaN binding lower than the PVIVIT peptide [%] | percent of CaN recovered (signal for each/signal for CaN standard * 40%) [%] | CaN binding (in words) |
| --- | --- | --- | --- | --- | --- | --- | --- | --- | --- | --- | --- |
| MAGPHTVFVITGPHEE [I641F, biotinylated APP peptide incorporating the FAD mutation I641F] | reduced substantially | 22.96 | 23.46 | 18.34 | 34.56 | 13.72 | 12.91 | 34.77 | – | – | – |
| MAGPHIVIVITGPHEE [T639I, biotinylated APP peptide incorporating the FAD mutation T639I] | – | 54.45 | 94.68 | 40.64 | 44.78 | 37.21 | 55.66 | 53.70 | – | – | – |
| MAGPHTMIVITGPHEE [V640M, biotinylated APP peptide incorporating the FAD mutation V640M] | – | 42.81 | 69.77 | 35.90 | 61.53 | 25.01 | 31.86 | 32.78 | – | – | – |
| MAGPHTVIVIPGPHEE [T644P, biotinylated APP peptide incorporating the FAD mutation T644P] | reliably reduced CaN binding | 4.71 | 0.13 | 8.45 | 2.14 | 4.28 | 3.74 | 9.51 | – | – | – |
| MAGPHTVIIITGPHEE [V642I, biotinylated APP peptide incorporating the FAD mutation V642I] | – | 44.18 | 54.96 | 45.24 | 82.71 | 28.44 | 26.76 | 26.97 | – | – | – |
| MAGPHSLIVLSGPHEE [APLP1] | – | – | – | – | – | – | – | – | ~80 | 13.18 | – |
| MAGPHTVIVISGPHEE [APLP2] | – | – | – | – | – | – | – | – | ~30 | 42.75 | – |
| GVVIATVIVITLVMLKK [APP-17mer] | – | – | – | – | – | – | – | – | – | 2.14 | minimal affinity for CaN |
| MAGPHTVIVITGPHEE [APP] | – | – | – | – | – | – | – | – | – | 52.92 | nearly the same extent as the PVIVIT peptide |
| AKAP79: N-terminally biotinylated peptide derived from the AKAP79 CaN-binding domain, positive control (Biotin-EESKRMEPIAIIITDTEISEFDVTKSKN) [reference compound] | – | – | – | – | – | – | – | – | – | 21.96 | – |
| MAGPHTVIFITGPHEE [V642F, biotinylated APP peptide incorporating the FAD mutation V642F] | – | 43.86 | 84.45 | 46.13 | 42.80 | 26.46 | 29.11 | 34.24 | – | – | – |
